Here are results for 9 molecules from patent US20080261234A1, “Peptides and their use in assays for cardiovascular disease” (priority 2000, published 2008).

Where no end group is shown, it is not given here.

Assay [1] concerns autoantibodies against oxLDL in serum samples. As to the kind of experiment: OxLDL EIA with copper-oxidized human LDL as antigen. The format is binding. The following applies: for Reactivity of autoantibodies, absorbance (OxLDL EIA): absorbance at 450 nm. Here is the method:
Various native and modified peptides, derived from the amino acid sequence of apoB-100 (Chen et al., supra), were tested as antigens suitable for use in EIA. The peptides were modified with MDA to produce similar oxidation specific epitopes as in oxLDL. The results of peptide EIA are compared to the results of oxLDL EIA which was optimized using copper-oxidized LDL as antigen; see Närvänen et al., Free Radical Biology & Medicine, in press.

For assay [2] the test system is unchanged. Description: Peptide EIA: autoantibodies against peptides and peptide-MDA complexes. In kind it is binding, human. Also noted: key to reaction of autoantibodies (mean ±SD): absorbance at 450 nm, blank subtracted. To be noted: for amount of autoantibodies, mean absorbance after subtracting the blank: Patients (n = 20), six forms of p63 peptide antigen; for reaction of autoantibodies (mean ±SD): plate coated with natp63, MDA and MDAp63; for Reactivity of autoantibodies, absorbance (PEPTIDE EIA): absorbance at 450 nm, serum 1:20; for MDAp63:natp63 ratio: after subtracting the blank. Here is the method:
Native and MDA-modified peptides were tested always on the same plate. One half of the plate was coated with the native peptide (20 μg/ml) and the other half was coated with the MDA-modified peptide [(20 μg/ml) 100 μl/well in 100 mmol/l bicarbonate buffer (pH 9.5)]. Coated plates were incubated overnight at room temperature (RT) and then washed with an automatic washer (Wellwash 4 MK II, Labsystems Oy) three times with phosphate buffered saline (PBS) containing 0.05% Tween 20. Plates were blocked with PBS containing 1% human serum albumin (HSA) (150 μl/well) for 1 h at RT and washed as above. Serum samples were diluted 1:20 in PBS containing 0.2% HSA and 0.05% Tween 20 and pipetted 100 μl/well. Plates were incubated for 2 h at RT and washed as above. HRP-conjugated anti-human IgG (diluted 1:20 000 in the sample buffer) was added (100 μl) to each well and incubated for 1 h at RT. After washing, colour was developed by adding the peroxidase substrate (tetramethylbenzidine (TMB) as a chromagen, 100 μl/well) and incubating the plates for 30 min at room temperature in the dark. The reaction was stopped with 0.5 mol/l H2SO4 (100 μl/well) and absorbances were measured at 450 nm (Multiskan microplate reader, Labsystems Oy). The results are shown in Table 2 and are expressed as the absorbance measurement obtained for the native and the modified peptides or as the ratio between antibody binding to the native and the modified peptides after subtracting the blank control.
To find out whether autoantibodies react with the peptide, with MDA or both when peptide-MDA complexes are used as antigen, a microtiter plate was coated with natp63, MDA and MDAp63 antigen and the immunoassays performed. MDA antigen was prepared as MDAp63 antigen but without peptide and MDA was diluted for coating in the same way as MDAp63.

The test system of assay [3] is antibodies of patient samples against the peptides. Description: Specificity test: peptide EIA with 0.5 M sodium chloride added to sample diluent. In kind it is binding, human. The following applies: mean of 20 patient samples. Here is the method:
The specificity of different antigens was tested by titration of peptides. […] In addition, the specificity of antibodies against cyclic and linear peptides, p244cyc and p244, was tested by adding 0.5 M sodium chloride to sample diluent. The titer of patient samples against p244, p244cyc and p63-MDA was 19%, 38% and 47% lower (mean of 20 patient samples), respectively, when salt was added to sample diluent. It appears that antibodies against p244 have the best specificity.

In assay [4] the test system is antibodies of patient samples binding to coated peptide. Description: Inhibition test: increasing concentrations of peptide added to sample diluent in peptide EIA. Also noted: species or system human. The following applies: inhibitor 100 μg/ml. The method, then:
The specificity of cyclic (p244cyc) and the corresponding linear peptide (p244) were tested in inhibition tests by adding increasing concentrations of peptides to sample diluent. P244cyc peptide inhibited with the highest inhibitor concentration (100 μg/ml), the average being 61% of the binding of 8 patient samples (FIG. 2A); 3 samples were inhibited by less than 50%. P244 inhibited with the highest inhibitor concentration (100 μg/ml), the average being 70% of the binding of 24 patient samples (FIG. 2B). 3 samples were inhibited less than 50%. P244 seemed to be more specific than p244cyc peptide. Finally, it was confirmed that the epitope of p244 is similar to p63 by coating plate with p244 and inhibiting the binding of patient samples with p63. P63 inhibited with the highest inhibitor concentration (100 μg/ml), the average being 53% of the binding of 22 patient samples (FIG. 3). 9 samples were inhibited less than 50%.

Turning to “natLDL: native human low density lipoprotein, used as antigen”, the results for the “Reactivity of autoantibodies, absorbance (OxLDL EIA)” value (“Reactivity … (OxLDL EIA)” below) in assay [1] (healthy controls (n = 17)) and in assay [1] (patients (n = 19)) were 0.351 ± 0.172 and 0.258 ± 0.170, respectively.
Consider “MDAp63: p63 modified with MDA (LSVKAQYKKNKHRHSITNPL; also: malondialdehyde (MDA) coupled via primary amines of lysines)”, for which the “amount of autoantibodies, mean absorbance after subtracting the blank” value (“amount of autoantibodies” below) in assay [2] is 0.601—. In addition, the “reaction of autoantibodies (mean ±SD)” value was 0.533±0.077 in assay [2] (control samples, n=23) and 0.431±0.040 in assay [2] (patient samples, n=16). Besides, the “Reactivity of autoantibodies, absorbance (PEPTIDE EIA)” value in assay [2] (healthy controls (n = 17)) is listed as 0.497 ± 0.184; in assay [2] (patients (n = 19)), 0.418 ± 0.141. Also, the “MDAp63:natp63 ratio” value in assay [2] (healthy controls (n = 17)) is 2.592 ± 0.751; in assay [2] (patients (n = 19)) it was 2.866 ± 0.924. In addition, in assay [3], the “titer of patient samples lower when salt was added to sample diluent” value (“titer of patient samples lower” below) amounted to 47%.
For “P244cyc-MDA: cyclic p63 modified with MDA (CGLSVKAQYKKNKHRHSITNPLGC; also: cyclic (mode not given here), modified with MDA) [Peptide P244cyc-MDA]”, the “amount of autoantibodies” value in assay [2] is given as 0.521—.
As for “p244cyc: cyclic p244 (CGLSVKAQYKKNKHRHSITNPLGC; also: cyclic (way of cyclisation not given here))”, the “amount of autoantibodies” value in assay [2] is listed as 0.734—. Further, the “average inhibition of the binding of patient samples” value (from here on “average inhibition”) in assay [4] (8 patient samples, p244cyc) is recorded as 61%. In addition, in assay [3], the “titer of patient samples lower” value stood at 38%.
For “LSVKAQYKKNKHRHSITNPL [p63, 2, 20 amino acids, 4 lysines]”, the “amount of autoantibodies” value in assay [2] is on record as 0.389—. Besides, the “reaction of autoantibodies (mean ±SD)” value in assay [2] (control samples, n=23) was found to be 0.282±0.100; in assay [2] (patient samples, n=16) it was 0.222±0.041. The results for the “Reactivity of autoantibodies, absorbance (PEPTIDE EIA)” value in assay [2] (healthy controls (n = 17)) and in assay [2] (patients (n = 19)) were 0.216 ± 0.142 and 0.159 ± 0.079, respectively. The “average inhibition” value in assay [4] (22 patient samples, plate coated with p244, inhibited with p63) worked out at 53%.
In the case of “p244: a linear form of p63, which contains two extra amino acids (glycine and cysteine) at both ends of the peptide (CGLSVKAQYKKNKHRHSITNPLGC)”, the “amount of autoantibodies” value in assay [2] is on record as 0.995—. Further, in assay [4] (24 patient samples, p244), the “average inhibition” value was found to be 70%. Also, in assay [3], the “titer of patient samples lower” value turned out to be 19%.
For “P63-PEA-MDA: p63 modified with MDA and phosphatidylethanolamine (LSVKAQYKKNKHRHSITNPL; also: modified with MDA and phosphatidylethanolamine) [Peptide P63-PEA-MDA]”, in assay [2], the “amount of autoantibodies” value is on record as 0.406—.
For the molecule `O=CCC=O` [MDA, Malondialdehyde, reference compound], the “reaction of autoantibodies (mean ±SD)” value is 0.300±0.019 in assay [2] (control samples, n=23) and 0.338±0.000 in assay [2] (patient samples, n=16).
On to “oxLDL: copper-oxidized low density lipoprotein purified from human plasma, used as antigen”, for which, in assay [1] (healthy controls (n = 17)), the “oxLDL:natLDL ratio” value is 1.886 ± 0.689 and the “Reactivity … (OxLDL EIA)” value came out at 0.591 ± 0.221. In assay [1] (patients (n = 19)), the “oxLDL:natLDL ratio” value came out at 2.535 ± 1.430 and the “Reactivity … (OxLDL EIA)” value turned out to be 0.600 ± 0.287.
